Measurements published in US6255497A, “Method for the inhibition of ALDH-I useful in the treatment of alcohol dependence or alcohol abuse” (priority 1998, dated 2001).
Values after ≈ are worked out from the molar mass of the structure shown. Where two headings read alike, the source gives them in different places.

Experiments:
[1] = physchem; settings: water
[2] = tested on: golden hamsters; test: Dose effect on free choice ethanol intake in golden hamsters, i.p.; format: in vivo, golden hamster
Excerpt: It is common practice in quantitative drug studies with rodents to use intraperitoneal (i.p.) administration to deliver drug doses accurately (Goodman and Gilman, 1975, The Pharmacological Basis of Therapeutics, 5th ed., Macmillan, N.Y., p. 8). In particular, this method avoids variability introduced by technical difficulties of oral administration via feeding (full versus empty stomach, etc.), variations in drug transport in the gastrointestinal tract (variations in intestinal fauna and flora, individual variations in absorption rate expected of outbred animals, etc.) and other factors. […] As a control 1 ml of sterile saline was injected i.p. daily during the baseline period (typically 7-9 days) that establishes drinking preference without the drug. Saline injection i.p. had no effect on the drinking behavior of golden hamsters. Ethanol was provided as a 20% solution. Hamsters could be used more than once (but were not used more than three times) in a cycle of baseline saline injections followed by drug injections, each cycle with the drug at a different dose.
The response to daidzin treatment was computed as:
% Response=(Vo -Vd)×100/Vo

[3] = target: T1, ALDH-II (Homo sapiens, UniProt P00352); test: Competitive inhibition of ALDH-II with acetaldehyde as substrate; format: biochemical; set-up: A liver sample (50 g wet weight) with the usual Caucasian ALDH phenotype (both ALDH-I and ALDH-II present); from tissue; host or cells: human liver (autopsy), purified by CM-52, AMP-agarose and DEAE HPLC; settings: acetaldehyde as substrate, competitive; read-out: Ki, ALDH-II
T1 sequence (P00352 1-501): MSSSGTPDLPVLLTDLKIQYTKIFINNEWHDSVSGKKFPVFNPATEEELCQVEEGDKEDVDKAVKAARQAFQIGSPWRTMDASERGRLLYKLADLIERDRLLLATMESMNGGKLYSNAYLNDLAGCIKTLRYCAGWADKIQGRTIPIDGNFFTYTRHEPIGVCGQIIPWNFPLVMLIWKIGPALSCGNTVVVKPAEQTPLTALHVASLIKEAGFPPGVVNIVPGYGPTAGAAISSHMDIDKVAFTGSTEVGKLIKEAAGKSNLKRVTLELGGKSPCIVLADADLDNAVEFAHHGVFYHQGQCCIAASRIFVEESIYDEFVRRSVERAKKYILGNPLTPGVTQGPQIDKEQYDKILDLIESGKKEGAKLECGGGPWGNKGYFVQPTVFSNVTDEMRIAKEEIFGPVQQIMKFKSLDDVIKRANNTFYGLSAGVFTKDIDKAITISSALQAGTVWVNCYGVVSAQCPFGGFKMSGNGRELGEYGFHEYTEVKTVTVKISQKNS

[4] = Plasma drug concentration versus time after a single 10 mg dose; format: in vivo; settings: golden hamster
Excerpt: Five hours later the plasma concentrations of both inhibitors were still above […], far above their competitive inhibition constants for ALDH-I.

[5] = target: T2, ALDH-I (Homo sapiens, UniProt P05091); test: Competitive inhibition of ALDH-I with acetaldehyde as substrate, progress curve method; format: biochemical; set-up: A liver sample (50 g wet weight) with the usual Caucasian ALDH phenotype (both ALDH-I and ALDH-II present); from tissue; host or cells: human liver (autopsy), purified by CM-52, AMP-agarose and DEAE HPLC
T2 sequence (P05091 18-517): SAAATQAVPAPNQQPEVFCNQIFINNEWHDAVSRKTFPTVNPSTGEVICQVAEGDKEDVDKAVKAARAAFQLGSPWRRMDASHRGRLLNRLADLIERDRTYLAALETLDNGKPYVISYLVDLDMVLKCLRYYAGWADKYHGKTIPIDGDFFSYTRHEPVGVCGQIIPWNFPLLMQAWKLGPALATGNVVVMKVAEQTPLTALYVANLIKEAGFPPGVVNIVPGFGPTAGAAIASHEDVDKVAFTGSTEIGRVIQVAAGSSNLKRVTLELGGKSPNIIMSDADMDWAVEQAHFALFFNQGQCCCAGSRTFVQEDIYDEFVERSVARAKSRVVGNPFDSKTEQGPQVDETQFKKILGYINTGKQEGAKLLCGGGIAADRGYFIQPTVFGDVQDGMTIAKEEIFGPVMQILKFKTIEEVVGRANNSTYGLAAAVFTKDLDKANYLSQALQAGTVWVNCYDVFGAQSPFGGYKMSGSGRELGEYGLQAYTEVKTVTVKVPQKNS
Excerpt: The progress curve method described by Klyosov and Berezin, 1972, Biokhimiya (Engl. transl.), Plenum, New York, 22: 141-151, was used instead of the initial velocilty method of Example 3 to obtain precis* values for inhibition constants for ALDH-I with acetaldehyde as substrate and the very tight binding novel inhibitors (Table VI).

[6] = intravenous, mice; cited from earlier work
[7] = two human volunteers, after 60 hours; cited from earlier work
[8] = tested on: ADH isozymes; test: Inhibition of ADH; format: biochemical, human
[9] = tested on: ALDH-I or ALDH-II; test: Survey of structurally related compounds for ALDH inhibition; format: biochemical, human
Protocol: For the study of the inhibition of ALDH-I by structurally related compounds to generate the data shown in Tables IV and V, each individual compound was dissolved at different concentrations in methanol and was added to the assay medium as 10 μL aliquots. For controls, 10 […] of methanol was added to the assay medium. In a standard ALDH-I assay, the assay medium contains 0.1 M sodium pyrophosphate pH 9.5, 0.15 M KCl, 1 mM NAD^+, 1% methanol, 5 μM acetaldehyde, 5-10 nM ALDH-I and various concentrations of inhibitor. The enzyme reaction rates were measured by monitoring the production of NADH at 340 nm (ε=6.22 mM^-1 cm^-1) with a Varian Cary 219 spectrophotometer thermostated at 25° C. (Fong et al., 1989, supra). The inhibition of ALDH-I by the inhibitors was calculated as: [formula]
where Vo is the enzyme reaction rate measured in the absence of inhibitor, and where Vi is the enzyme reaction rate measured in the presence of inhibitor. […] IC50 values are related to the underlying Ki values.

[10] = tested on: alcohol consumption; settings: rat, in vivo; cited from earlier work
[11] = experimental animals; cited from earlier work
[12] = tested on: ALDH-I; settings: via reactive product of catabolism; cited from earlier work
[13] = tested on: euphoria; settings: double-blind study in humans; cited from earlier work
[14] = cited from earlier work
[15] = tested on: ALDH-II; settings: via reactive product of catabolism; cited from earlier work
[16] = tested on: ALDH-II; settings: cited from earlier work
[17] = tested on: ALDH; settings: cited from earlier work
[18] = tested on: ALDH-I; settings: cited from earlier work
[19] = tested on: ALDH-II; settings: high Km cytosolic isozyme; cited from earlier work
[20] = tested on: ALDH-I; settings: cited from earlier work; remark: listed apart in the source
[21] = tested on: dopamine-β-hydroxylase, microsomal mixed function oxidases and other sulfhydryl-containing enzymes; settings: cited from earlier work
[22] = tested on: ALDH; settings: cited from earlier work; remark: listed apart in the source
[23] = tested on: alcohol consumption; settings: placebo-controlled clinical trials; cited from earlier work
[24] = tested on: human class IV ADH; settings: cited from earlier work
[25] = tested on: class I ADH isozymes containing at least one γ-subunit; settings: cited from earlier work
[26] = substrate: C=O; test: purified protein, by the assay type; settings: pH 9.5; 25.0 °C
Protocol: The inhibition kinetics were studied by the initial velocity method (Dixon and Webb, 1979, Enzymes, 3rd ed., Longman, Great Britain). […] The initial reaction rates were measured in a pH 9.5 assay medium 0.1 11 in glycine-NaOH, 0. […] The enzyme reaction rates were followed by monitoring the production of NADH at 340 nm (ε-6.22 mM^-1 cm^-1) with a Varian Cary 219 spectrophotometer thermostated at 25° C. The kinetic data were analyzed by standard graphical methods.

Q: For O=C(O)CCCCCCOc1ccc2c(=O)c(-c3ccc(O)cc3)coc2c1 [Daidzein 7-(ω-carboxyhexyl) ether, daidzein 7-(ω-carboxyhexyl) ether], which solubility [1] is on record?
A: Its solubility is 13 mM (≈ 4970 µg/mL).

Q: And the “suppression of alcohol intake, hamster B7” value ([2]; 10 mg/day, i.p., trained hamster B7)?
A: Its value is 69%.

Q: And the “suppression of alcohol intake, hamster E23” value ([2]; 10 mg/day, i.p., trained hamster E23)?
A: Its value is 72%.

Q: And the “potency relative to daidzin, suppression of alcohol intake” value ([2]; assuming a dose response slope similar to that of daidzin)?
A: Its value is “not more than twice as potent as daidzin”.

Q: What about the Ki [3] of the same molecule?
A: The Ki was 215 nM.

Q: What about the “time to maximal plasma concentration after injection” value ([4]; i.p.) of the same molecule?
A: Its value is “within about an hour after injection”.

Q: And the Cmax ([4]; plasma, ip, read-out: maximal plasma concentration)?
A: The Cmax was 4.5 µM.

Q: What about the Ki [5] of the same molecule?
A: Its Ki is 9 nM.

Q: Which Ki [3] does the source give for CCOc1ccc2c(=O)c(-c3ccc(O)cc3)coc2c1 [Daidzein 7-ethyl ether] here?
A: Its Ki is 440 nM.

Q: And the Ki [5]?
A: The Ki was 38 nM.

Q: Which results are given for O=c1c(-c2ccc(O)cc2)coc2cc(O)ccc12 [Daidzein]?
A: half-life [6]: on the order of one hour; excretion in urine and feces [7]: little daidzein had appeared in urine and feces after 60 hours; ADH inhibition [8]: selectively inhibits certain ADH isozymes; ALDH inhibition [9]: does not inhibit ALDH

Q: With N#CN [cyanamide] as the molecule, how does the “alcohol consumption after alcohol deprivation” value [10] read?
A: Its value is “increase in alcohol consumption”.

Q: And the antithyroid activity [11]?
A: Its antithyroid activity is “significant antithyroid activity”.

Q: And the “inhibition of ALDH-I in vivo” value [12]?
A: Its value is “inhibits both isozymes”.

Q: And the “effect with low doses of alcohol” value [13]?
A: Its value is “induces and enhances euphoria”.

Q: And the liver injury ([14]; alcoholics treated with cyanamide)?
A: Its liver injury is “liver injury, including generation of ground-glass inclusion bodies in liver cells”.

Q: What about the cardiotoxic effects ([14]; in vivo) of the same molecule?
A: The cardiotoxic effects was “cardiotoxic effects, including hypotension and even cardiac death”.

Q: What about the “inhibition of ALDH-II in vivo” value [15] of the same molecule?
A: The value was “inhibits both isozymes”.

Q: What about the “inhibition of ALDH-II in vitro” value [16] of the same molecule?
A: The value was “Neither ALDH-I (the low Km isozyme) nor ALDH-II (the high Km isozyme) are inhibited in vitro”.

Q: What about the “reversibility of ALDH inhibition” value ([17]; in vivo) of the same molecule?
A: The value was “reversible”.

Q: What about the “time of maximal ALDH inhibition after drug administration” value ([17]; in vivo) of the same molecule?
A: The value was 1 to 2 h.

Q: What about the “restoration of ALDH activity within 24 hours” value ([17]; within 24 hours) of the same molecule?
A: Its value is 80%.

Q: And the “inhibition of ALDH-I in vitro” value [18]?
A: The value was “Neither ALDH-I (the low Km isozyme) nor ALDH-II (the high Km isozyme) are inhibited in vitro”.

Q: For CCN(CC)C(=S)SSC(=S)N(CC)CC [disulfiram, tetraethylthiuram disulfide], which “inhibition of ALDH-II in vitro” value [19] is on record?
A: The value was “potent inhibitor”.

Q: And the “inhibition of ALDH-I in vitro” value ([20]; major mitochondrial isozyme)?
A: The value was “only slightly”.

Q: And the “inhibition of ALDH-I in vitro in presence of mercaptans” value ([20]; trace amounts of 2-mercaptoethanol or methanethiol)?
A: Its value is “inactivated”.

Q: What about the “effect with low doses of alcohol” value [13] of the same molecule?
A: The value was “induces and enhances euphoria”.

Q: What about the “specificity of enzyme inhibition” value [21] of the same molecule?
A: Its value is “broadly acting but non-specific inhibitor”.

Q: What about the “skin toxicity and neuropathy” value ([14]; in vivo) of the same molecule?
A: The value was “peripheral neuropathy”.

Q: What about the “reversibility of ALDH inhibition in vivo” value [22] of the same molecule?
A: Its value is “irreversible”.

Q: What about the “time over which ALDH is inhibited in vivo” value [22] of the same molecule?
A: Its value is 12 h.

Q: What about the “time to restoration of ALDH activity” value ([22]; in vivo, de novo enzyme synthesis) of the same molecule?
A: The value was no less than 6 days.

Q: What about the “reduction of alcohol consumption vs placebo” value [23] of the same molecule?
A: Its value is “no more effective than the placebo control”.

Q: With CCO [ethanol] as the molecule, how does the Km [24] read?
A: The Km was 41 mM.

Q: For C[C@]12CC[C@H]3[C@@H](CCC4=CC(=O)CC[C@@]43C)[C@@H]1CC[C@@H]2O [testosterone], which “selective inhibition of γ-subunit class I ADH” value [25] is on record?
A: Its value is “selectively inhibited”.

B1: human ALDH-II (Homo sapiens) (protein)
chain: T1 sequence (P00352 1-501)
Q: Which Km [26] does the source give for B1 here?
A: Its Km is 6.6 mM.
